# Literature values in patent publication US20240139276A1, “HAIR GROWTH AGENT” (ADJUVANT HOLDINGS CO., LTD., priority 2021, published 2024).
# Legend:
# [1] = test system: fibroblast growth factor 7 (FGF-7) expression in human dermal papilla cells; settings: adenosine allowed to act on human dermal papilla cells
# [2] = test system: vascular endothelial growth factor (VEGF) expression in human dermal papilla cells; settings: adenosine allowed to act on human dermal papilla cells
structure (smiles),measurement,setting,value
Nc1ncnc2c1ncn2[C@@H]1O[C@H](CO)[C@@H](O)[C@H]1O [adenosine],expression of fibroblast growth factor 7 (FGF-7),[1],also promotes expression of fibroblast growth factor 7 (FGF-7)
same,expression of vascular endothelial growth factor (VEGF),[2],promotes expression of vascular endothelial growth factor (VEGF)
